From paper PMC3828334, “Tumor Cell Death Mediated by Peptides That Recognize Branched Intermediates of DNA Replication and Repair” (PLoS ONE, 2013) come the findings set out here.

Where two headings read alike, the source gives them in different places. Non-standard residues stand in square brackets, D forms with d. Residues, ends and D or L forms follow the SMILES beside them.

Series [1] deals with DuPro-1 cells. The class given is cell-based. The settings on record: 48 h.
Series [2] concerns PC3 cells. Put plainly: HPLC determination of intracellular and extracellular peptide concentration. Format: in vitro ADME. The protocol:
500,000 HeLa or 400,000 PC3 cells were plated in each well of the 6-well dishes (Costar) and allowed to attach overnight at 37°C with 5% CO2. The cells were treated with d-wrwycr or d-wrwyrggrywrw for 24 or 48 h respectively. For PC3 cells media along with the dodecamer treatments were collected for a separate run in HPLC. PC3 or HeLa cells were lysed using a lysis buffer containing 0.71% NP40, 71 mM Tris (pH 7.5), 0.71 mM EDTA and 212 mM NaCl on ice for 5–10 mins. The lysates were centrifuged at 13,000 g for 7 mins to clear cellular debris. The samples were analyzed by HPLC (Beckman Coulter System Gold BioEssential 126/168) using a Phenomonex Jupiter 4 micron Proteo 90A C18 hydrophobic column to detect the peptides within the cells. […] The intracellular concentration was calculated by taking into account the area under the peptide peaks, using the integration function of 32 Karat software (Beckman Coulter, Fullerton, California), and comparing them to the standard curve of the peptide. […] The extracellular concentration of wrwyrggrywrw was calculated by running the media similarly in HPLC and comparing them to the standard curve of wrwyrggrywrw.
To investigate whether peptide wrwycr or wrwyrggrywrw accumulated within cells, the concentration of the unlabeled and unmodified peptides was directly determined using an HPLC-based method. […]

Series [3] deals with LnCAP cells. Format: cell-based. The settings on record: 48 h.
The test system of series [4] is PC3 cells. The settings on record: for cell survival: MTT. As to the method: 20,000 PC3 cells were plated overnight in 96 well plates (Costar) at a concentration of 200,000 cells/ml. They are treated with the peptides, doxorubicin, docetaxel alone, or in combination for different time period incubation and the cell viability was determined by MTT assay as described. The percentage survival of the cells with different treatments was calculated using DMSO-vehicle control-treated cells as the standard.

In series [5] the test system is GRP78 promoter in HeLa cells. Put plainly: Luciferase reporter assay for ER stress. The class given is cell-based. The settings on record: positive control. As to the method:
HeLa cells were transfected with either either 15 µg of plasmid DJT208, carrying the GRP78 promoter (pGRP78) driving the ER-stress response elements ERSE 1, ERSE 2 and ERSE 3 upstream of the luciferase gene, or 15 µg of the plasmid GL2P, carrying the luciferase gene driven by the SV40 promoter (pSV40). All cells were also co-transfected with 10 µg of the PB1 plasmid, carrying the β-galactosidase reporter transcribed by the SV40 promoter, as a transfection control. [The plasmids were generous gifts from Dr. Peter Belmont from Christopher Glembotski's Lab in SDSU]. After 24 h the cells were treated with increasing concentrations of wrwycr (100, 150 and 200 µM) for 24 h and the luciferase activity was measured using an OptocompII Luminometer. Tunicamycin (TM), a known inducer of ER stress, was used as a positive control for the experiment ER stress was calculated as the fold increase of luciferase gene expression from the GRP78 promoter over that from the SV40 promoter of pGL2P for the different concentrations of the peptide over DMSO, which is the solvent for the peptide, or over the media in the case of TM.

Series [6] relates to HeLa cells. Put plainly: TUNEL assay, HeLa, with z-VAD-fmk or z-FA-fmk. Format: cell-based. The protocol:
600,000 PC3 cells or 500,000 HeLa cells were plated in 60-mm dishes or 6-well plates respectively to allow them to attach overnight at 37°C with 5% CO2. PC3 cells were subsequently treated with appropriate treatments for 24, 36 and 48 h while HeLa cells were treated with 1 µl of either the caspase inhibitor z-VAD-fmk or z-FA-fmk (both from Biovision), containing appropriate treatments, for 24 h. The cells were fixed with 4% paraformaldehyde for 30 min and permeabilized with 0.1% Triton X-100 in 0.1% sodium citrate buffer for 3 mins. Labeled dUTP were added along with the terminal deoxynucleotidyl transferase dUTP nick end labeling (TUNEL) (TUNEL kit from Roche) as described in the kit. Samples were analyzed using a Becton Dickinson FACS Canto flow cytometer as specified above.

Series [7] concerns Chk2 in PC3 cells. The experiment in a line: Phospho-Chk2 by flow cytometry. The settings on record: PC3, 1 µM doxorubicin on its own, 48 h. Format: cell-based. The protocol:
They were subsequently treated with either 50-200 μM […] or 50-100 μM […] or 0.5-1 μM doxorubicin or combination treatment for 0, 12, 24, 36 and 48 h. […] Samples were analyzed using a Becton Dickinson FACS Canto flow cytometer at a forward scatter voltage of 25 V, side-scatter voltage of 400 V, and FITC channel at a voltage of 400 V.

For series [8], the system named is Htog1 cells (variant of HeLa cells). Put plainly: Cytochrome C release / TMRE assay for apoptosis. Format: cell-based. The settings on record: 150 µM etoposide, 24 h, positive control. The protocol:
200,000 Htog1 cells (variant of HeLa cells, a generous gift from Drs. Terrence Frey and Maria Guo) were seeded on cover slips mounted on 35 mm microwell petri dishes (Mattek Corp, Ashland, MA) with DMEM supplemented with 10% FBS and allowed to attach overnight at 37°C in 5% CO2. The media was replaced with 1 ml of the appropriate treatment and incubated for 24 h. After 23 h of treatment, 50 µM tetramethyl rhodamine ethyl ester perchlorate (TMRE) solution was added to each well (final concentration 50 nM) and incubated for the remaining hour. Cytochrome C release and loss of TMRE staining were determined in Z-series images acquired using a Leica TCS SP2 inverted confocal microscope. GFP was excited using 488 nm wavelength from an Ar/Kr laser attenuated to 33%, and the emitted fluorescence detected at 497–553 nm. TMRE fluorescence was excited using a 543 nm wavelength from an Ar/Kr laser attenuated to 35%, and the emitted fluorescence detected at 555–620 nm. Each cell was analyzed for release of GFP (GFP channel), loss of mitochondrial membrane potential (TMRE loss) or morphological abnormalities associated with apoptosis, and the % cells positive for each hallmark was calculated for the various treatments.

Turning to `N=C(N)NCCC[C@@H](NC(=O)CNC(=O)CNC(=O)[C@@H](CCCNC(=N)N)NC(=O)[C@@H](Cc1ccc(O)cc1)NC(=O)[C@@H](Cc1c[nH]c2ccccc12)NC(=O)[C@@H](CCCNC(=N)N)NC(=O)[C@H](N)Cc1c[nH]c2ccccc12)C(=O)N[C@H](Cc1ccc(O)cc1)C(=O)N[C@H](Cc1c[nH]c2ccccc12)C(=O)N[C@H](CCCNC(=N)N)C(=O)N[C@H](Cc1c[nH]c2ccccc12)C(N)=O` [wrwyrggrywrw] (H-[dW][dR][dW][dY][dR]GG[dR][dY][dW][dR][dW]-NH2), the IC50 stood at 25 µM in series [1], 25 µM in series [3] and 50 µM in series [4] (48 h). Moreover, the intracellular concentration in series [2] (25 µM input dose, PC3 cells, 48 h, cell lysate soluble fraction, HPLC C18 against standard curve, cell volume 1.6–2.4 pl) is about 1 mM. Further, the “peptide in the media less than input” value in series [2] (media with 10% FBS after treatment of PC3 cells, several input concentrations, HPLC (Figure 2Aii)) was 5–10%.

On to Tunicamycin, for which, in series [5] (concentration not given), the “pGRP78 Units” value stood at 425255±16205 and the “pSV40 Units” value came to 4606±362.1. Moreover, in series [5] (over the media), the pGRP78/pSV40 came to 20.0±1.36, the “pGRP78 Fold change” value is 7.9±0.09 and the “pSV40 Fold change” value is 0.4±0.02.

Regarding `CC(=O)O[C@@]12CO[C@@H]1C[C@H](O)[C@@]1(C)C(=O)[C@H](O)C3=C(C)[C@@H](OC(=O)[C@H](O)[C@@H](NC(=O)OC(C)(C)C)c4ccccc4)C[C@@](O)([C@@H](OC(=O)c4ccccc4)[C@H]21)C3(C)C` [docetaxel], the cell survival was found to be 90% in series [4] (PC3, 10 nM docetaxel, 48 h) and 80% in series [4] (PC3, 50 nM docetaxel, 48 h).

For the compound `OC[C@@H](O)[C@@H](O)[C@H](O)[C@@H](O)CO` [sorbitol], the TUNEL-positive cells was about 80% in series [6] (400 mM sorbitol with mock inhibitor z-FA-fmk) and under 10% in series [6] (400 mM sorbitol with z-VAD-fmk inhibitor).

As to `COc1cccc2c1C(=O)c1c(O)c3c(c(O)c1C2=O)C[C@@](O)(C(=O)CO)C[C@@H]3O[C@H]1C[C@H](N)[C@H](O)[C@H](C)O1` [doxorubicin], the “cellular population with activated Chk2” value in series [7] was 50%. Further, the cell survival in series [4] (PC3, 1 µM doxorubicin alone, time course, evident at 36 h (Figure 9B)) was found to be 80%; in series [4] (PC3, 2.5 µM doxorubicin alone, 48 h), 73%.

Regarding `NC(=O)NO` [hydroxyurea], the TUNEL-positive cells in series [6] (10 mM hydroxyurea alone) is under 2%.

In series [6] (1.3 µM etoposide alone), `COc1cc([C@@H]2c3cc4c(cc3[C@@H](O[C@@H]3O[C@@H]5CO[C@@H](C)O[C@H]5[C@H](O)[C@H]3O)[C@H]3COC(=O)[C@H]23)OCO4)cc(OC)c1O` [etoposide, reference compound] returned a TUNEL-positive cells of under 2%. Also, the “cytochrome C release and mitochondrial membrane potential” value in series [8] was “loss of mitochondrial membrane potential and release of cytC”.
